# From paper PMC13586308, “Cell type–selective targeting by heterobifunctional protein binders via in-cell enrichment” (Nature Communications, 2026)
# Where two headings read alike, the source gives them in different places.
# Tests used:
# BRD3BD2 = target: T1, BRD3BD2 (Homo sapiens, UniProt Q15059); assay: competitive FP assay, BRD3 BD2 -/+ FKBP12; assay type: binding
# T1 construct: to the isolated BD1 and BD2 domains of BRD2, BRD3 and BRD4
# BRD2BD2 = BRD2BD2 (Homo sapiens, UniProt P25440); assay: competitive FP assay, BRD2 BD2 -/+ FKBP12; assay type: binding
# BRD2BD2, sequence (P25440 344-453 limits assumed): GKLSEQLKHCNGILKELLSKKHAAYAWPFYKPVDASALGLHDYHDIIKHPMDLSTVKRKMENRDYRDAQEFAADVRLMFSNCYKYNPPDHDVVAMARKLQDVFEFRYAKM
# BRD3BD1 = target: T2, BRD3BD1 (Homo sapiens, UniProt Q15059); assay: competitive FP assay, BRD3 BD1 -/+ FKBP12; assay type: binding
# T2 construct: to the isolated BD1 and BD2 domains of BRD2, BRD3 and BRD4
# T2 sequence (Q15059 34-140 limits assumed): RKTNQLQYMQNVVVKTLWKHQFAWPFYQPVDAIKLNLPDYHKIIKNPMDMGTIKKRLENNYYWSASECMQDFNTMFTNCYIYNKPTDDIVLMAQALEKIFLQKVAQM
# BRD4 43-463 Y97A = assay: competitive FP assay, BRD4 tandem construct Y97A; assay type: binding
# BRD4 43-463 Y390A = assay: competitive FP assay, BRD4 tandem construct Y390A; assay type: binding
# BRD2BD1 = target: T3, BRD2BD1 (Homo sapiens, UniProt P25440); assay: competitive FP assay, BRD2 BD1 -/+ FKBP12; assay type: binding
# T3 construct: to the isolated BD1 and BD2 domains of BRD2, BRD3 and BRD4
# T3 sequence (P25440 74-180 limits assumed): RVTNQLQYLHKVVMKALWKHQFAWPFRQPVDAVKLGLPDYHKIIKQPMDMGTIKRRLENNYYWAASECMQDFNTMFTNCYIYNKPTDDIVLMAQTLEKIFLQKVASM
# BRD4^BD1 = target: T4, BRD4^BD1 (Homo sapiens, UniProt O60885); assay: competitive fluorescence polarization assay, BRD4 BD1 -/+ presenter protein; assay type: binding; details: for α BRD4^BD1 (binding cooperativity factor): ratio of binding in absence or presence of FKBP12
# T4 construct: to the isolated BD1 and BD2 domains of BRD2, BRD3 and BRD4
# FKBP12 [1] = target: T5, FKBP12 (Homo sapiens, UniProt P62942); assay: NanoBRET FKBP12 in intact HEK293 cells; assay type: cell-based
# T5 sequence (P62942 whole entry): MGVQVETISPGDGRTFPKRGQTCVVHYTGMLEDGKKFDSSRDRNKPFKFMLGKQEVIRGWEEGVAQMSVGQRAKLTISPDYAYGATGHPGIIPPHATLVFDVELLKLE
# BRD4^BD2 = target: T6, BRD4^BD2 (Homo sapiens, UniProt O60885); assay: competitive fluorescence polarization assay, BRD4 BD2 -/+ presenter protein; assay type: binding; details: for α BRD4^BD2 (binding cooperativity factor): ratio of binding in absence or presence of FKBP12
# T6 construct: to the isolated BD1 and BD2 domains of BRD2, BRD3 and BRD4
# FKBP12 [2] = target: T5, FKBP12; assay: competitive fluorescence polarization assay, binding to FKBP12; details: competitive FP assay
# BRD4 = target: T7, BRD4 (Homo sapiens, UniProt O60885); assay: NanoBRET BRD4, transient BRD4-NanoLuc in HEK293T cells; assay type: cell-based; details: intact HEK293 cells
# T7 construct: full-length BRD4 fused to NanoLuc at N terminus; expressed in transfected cells; host or cells: HEK293T
# Method: The NanoBRET assay was performed as described previously[26],[39]. To study BRD4 engagement, we employed two models: cells stably expressing BRD4-NanoLuc and cells with transient BRD4-NanoLuc expression. For stable cell lines, the coding sequence of human BRD4 (Isoform B) was fused in-frame to NanoLuc luciferase under the control of the human ubiquitin C (UbC) promoter, with left and right homology arms targeting the AAVS1 locus in intron 1 of the PPP1R12C gene to facilitate genomic integration. PC3 prostate cancer cells were transfected with this construct and vectors expressing Cas9 and an sgRNA targeting the AAVS1 locus using Lipofectamine 3000 (Invitrogen). Successful integrands were selected with blasticidin. Expression of the fusion protein was confirmed by western blot. For transient experiments, full-length BRD4 fused to NanoLuc at N terminus, was cloned into an expression plasmid and transfected into HEK293T cells using FuGENE HD (Promega, E2312), with protein expression allowed for 20 h. Serially diluted inhibitors and BRD Tracer-02 (Promega, TracerDB ID: T000022) at the Tracer KD concentration (from TracerDB)[40] were dispensed into white 384-well plates (Greiner 781207) using an ECHO 550 acoustic dispenser (Labcyte). The cells were trypsinized, resuspended in Opti-MEM without phenol red (Life Technologies), and seeded at 2 × 10^5 cells/mL. After equilibration for 2 h at 37 °C/5% CO₂ following compound treatment, the NanoBRET® NanoGlo Substrate + Extracellular NanoLuc® Inhibitor (Promega, N2162) was added according to the manufacturer’s protocol, and filtered luminescence was measured on a PHERAstar plate reader (BMG Labtech) using a donor (450 nm BP) and acceptor (610 nm LP) filter pair. Competitive displacement data were analyzed using GraphPad Prism 9 with a normalized 3-parameter curve fit: Y = 100/(1 + 10^(X − log IC₅₀)). For BRET measurements after FKBP12 knockdown in stably expressing BRD4 Nano-Luc reporter cell line, 10 nL/per well of the FKBP12 PROTAC was pipetted to each well using Labcyte to achieve the final concentration of 200 nM and the plated cells were incubated over-night at 37 °C and 5% CO2. BRET measurements were performed as outlined above.
# MYC mRNA = assay: quantitative RT-PCR of MYC mRNA, MV4-11; assay type: cell-based, human; details: MV4-11
# [3] = absence of FKBP12, 2 nM JQ1-FL tracer, read-out: Binding to BRD4^BD1 - FKBP12 Kd
# [4] = presence of 15 µM FKBP12, read-out: Binding to BRD4^BD1 + FKBP12 Kd (converted)
# [5] = presence of 15 µM FKBP12, read-out: Binding to BRD4^BD2 + FKBP12 Kd (converted)
# [6] = absence of FKBP12, 2 nM JQ1-FL tracer, read-out: Binding to BRD4^BD2 - FKBP12 Kd
# T1 sequence (Q15059 306-415 limits assumed): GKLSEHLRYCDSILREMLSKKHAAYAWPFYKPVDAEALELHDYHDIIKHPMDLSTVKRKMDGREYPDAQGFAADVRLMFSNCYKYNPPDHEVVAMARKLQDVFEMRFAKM
Compound,α BRD3BD2 (BRD3BD2),α BRD2BD2 (BRD2BD2),α BRD3BD1 (BRD3BD1),α BRD4 43-463 Y97A (BRD4 43-463 Y97A),α BRD4 43-463 Y390A (BRD4 43-463 Y390A),α BRD2BD1 (BRD2BD1),Kd (BRD4^BD1; [3]) [nM],Kd (BRD4^BD1; [4]) [nM],α BRD4^BD1 (binding cooperativity factor) (BRD4^BD1),IC50 (FKBP12 [1]) [nM],Kd (BRD4^BD2; [5]) [nM],α BRD4^BD2 (binding cooperativity factor) (BRD4^BD2),Kd (FKBP12 [2]) [nM],IC50 (BRD4) [nM],effect of CD36 inhibitor on myc repression upon a1dj treatment (MYC mRNA),Kd (BRD4^BD2; [6]) [nM],nanoBRET BRD4 IC50 (BRD4)
"Cc1sc2c(c1C)C(c1ccc(Cl)cc1)=N[C@@H](CC(=O)OC(C)(C)C)c1nnc(C)n1-2 [JQ1, (+)-JQ1, reference compound]",1.0,1.0,1.0,1.2,1.0,1.0,–,–,–,–,–,–,–,–,–,–,–
Cc1sc2c(c1C)C(c1ccc(Cl)cc1)=NC(CC(=O)N1CC(CN3CCC(Cn4cc(COCC5CN(Cc6ccccn6)C(=O)C6CCCC5N6S(=O)(=O)c5cc(Cl)cc(Cl)c5)nn4)CC3)C1)c1nnc(C)n1-2 (centres unmarked) [a12d],–,–,–,–,–,–,250 ± 40,40 ± 10,6.3,406,590 ± 70,1.9,2.3,514,–,–,–
"CCCCCCCC/C=C\CCCCCCCC(=O)ON1C(=O)CC(S(=O)(=O)O)C1=O (centres unmarked) [sulfosuccinimidyl oleate (SSO), sulfosuccinimidyl oleate, reference compound]",–,–,–,–,–,–,–,–,–,–,–,–,–,–,did not observe any effect,–,–
Cc1sc2c(c1C)C(c1ccc(Cl)cc1)=NC(CC(=O)NCCOCCn1cc(C3CN(Cc4ccccn4)C(=O)C4CCCC3N4S(=O)(=O)c3cc(Cl)cc(Cl)c3)nn1)c1nnc(C)n1-2 (centres unmarked) [a1c],–,–,–,–,–,–,–,–,0.3,22,–,0.4,1,940,–,590 ± 110,–
C=CC1CN(Cc2ccccn2)C(=O)C2CCCC1N2S(=O)(=O)c1cc(Cl)cc(-c2cn(CCOCCNC(=O)CC3N=C(c4ccc(Cl)cc4)c4c(sc(C)c4C)-n4c(C)nnc43)nn2)c1 (centres unmarked) [a1g],–,–,–,–,–,–,–,> 20000,–,230,–,0.2,46,1500,–,–,–
Cc1sc2c(c1C)C(c1ccc(Cl)cc1)=NC(CC(=O)N1CCN(CCCn3cc(COCC4CN(Cc5ccccn5)C(=O)C5CCCC4N5S(=O)(=O)c4cc(Cl)cc(Cl)c4)nn3)CC1)c1nnc(C)n1-2 (centres unmarked) [a5d],–,–,–,–,–,–,740 ± 100,300 ± 50,2.5,93,600 ± 100,1.8,1.2,1080,–,–,–
Cc1sc2c(c1C)C(c1ccc(Cl)cc1)=NC(CC(=O)N1CCC(CN3CCC(n4cc(C5CN(Cc6ccccn6)C(=O)C6CCCC5N6S(=O)(=O)c5cc(Cl)cc(Cl)c5)nn4)CC3)CC1)c1nnc(C)n1-2 (centres unmarked) [a7c],–,–,–,–,–,–,520 ± 80,180 ± 30,2.9,138,900 ± 200,0.8,3.5,665,–,700 ± 100,–
Cc1sc2c(c1C)C(c1ccc(Cl)cc1)=NC(CC(=O)N1CC(CN3CCC(n4cc(COCC5CN(Cc6ccccn6)C(=O)C6CCCC5N6S(=O)(=O)c5cc(Cl)cc(Cl)c5)nn4)CC3)C1)c1nnc(C)n1-2 (centres unmarked) [a11d],–,–,–,–,–,–,480 ± 70,40 ± 10,12,165,700 ± 100,1.8,0.8,687,–,–,–
Cc1sc2c(c1C)C(c1ccc(Cl)cc1)=NC(CC(=O)N1CCN(CCn3cc(COCC4CN(Cc5ccccn5)C(=O)C5CCCC4N5S(=O)(=O)c4cc(Cl)cc(Cl)c4)nn3)CC1)c1nnc(C)n1-2 (centres unmarked) [a4d],–,–,–,–,–,–,500 ± 60,380 ± 50,1.3,89,–,1,1.1,–,–,–,none
Cc1sc2c(c1C)C(c1ccc(Cl)cc1)=NC(CC(=O)N1CCC(N3CCC(n4cc(C5CN(Cc6ccccn6)C(=O)C6CCCC5N6S(=O)(=O)c5cc(Cl)cc(Cl)c5)nn4)CC3)CC1)c1nnc(C)n1-2 (centres unmarked) [a9c],–,–,–,–,–,–,280 ± 40,180 ± 20,1.6,107,650 ± 90,0.5,2.2,155,–,310 ± 40,–
Cc1sc2c(c1C)C(c1ccc(Cl)cc1)=NC(CC(=O)N1CCC(N3CCC(Cn4cc(C5CN(Cc6ccccn6)C(=O)C6CCCC5N6S(=O)(=O)c5cc(Cl)cc(Cl)c5)nn4)CC3)CC1)c1nnc(C)n1-2 (centres unmarked) [a10c],–,–,–,–,–,–,120 ± 30,900 ± 100,0.1,288,–,–,0.3,497,–,170 ± 30,–
